From patent US10968178B2, “IP6K inhibitors” (TAKEDA PHARMACEUTICAL COMPANY LIMITED, priority 2017, dated 2021) come the findings set out here.

What all share (type): biochemical
One assay deals with T1, human IP6K1 (Homo sapiens, UniProt Q92551).
T1 construct: human IP6K1 (1-441) gene; GST; made in house; host or cells: Sf-9 insect cells
Briefly: IP6K enzyme inhibitory assay (ADP-Glo Kinase Assay), human IP6K1. The following applies: compound concentration 0.1 μM; for inhibition at 0.1 µM: read-out: ADP-Glo method inhibitory rate (%) human IP6K1. The method in brief: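 Inhibition of human IP6K1 was determined with Promega's ADP-Glo Kinase Assay in 384 well plates. Test compound diluted in assay buffer (20 mM HEPES (pH 7.5), 6 mM MgCl2, 0.01% Tween-20, 1 mM DTT) was added at 2 μL, then 2 μL of enzyme started the reaction for 60 min at room temperature. Next came 3 μL ADP-Glo solution for 30 min and 6 μL Kinase-Detection solution for 60 min. Luminescence was read on an Envision plate reader.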
For orientation: ADP-Glo first removes unused ATP, then detects ADP through luciferase.

Another assay concerns the target T2, human IP6K2 (Homo sapiens, UniProt Q9UHH9).
T2 construct: human IP6K2 (1-426) gene; GST; made in house; host or cells: Sf-9 insect cells
T2 sequence (Q9UHH9 1-426): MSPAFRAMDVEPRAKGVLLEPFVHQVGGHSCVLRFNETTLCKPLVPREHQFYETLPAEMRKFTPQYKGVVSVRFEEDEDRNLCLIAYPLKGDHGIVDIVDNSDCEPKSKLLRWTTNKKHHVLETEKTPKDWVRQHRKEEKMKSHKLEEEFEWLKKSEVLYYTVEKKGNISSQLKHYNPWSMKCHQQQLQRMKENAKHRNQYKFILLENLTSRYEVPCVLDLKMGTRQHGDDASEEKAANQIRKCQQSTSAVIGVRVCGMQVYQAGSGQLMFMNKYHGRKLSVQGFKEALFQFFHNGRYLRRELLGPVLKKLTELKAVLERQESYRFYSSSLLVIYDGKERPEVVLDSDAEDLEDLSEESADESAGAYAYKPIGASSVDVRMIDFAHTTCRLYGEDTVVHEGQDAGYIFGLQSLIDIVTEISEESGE
Briefly: IP6K enzyme inhibitory assay (ADP-Glo Kinase Assay), human IP6K2. The following applies: compound concentration 0.1 μM; for inhibition at 0.1 µM: read-out: ADP-Glo method inhibitory rate (%) human IP6K2. The method in brief:
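The inhibitory activity against human IP6K2 was measured with Promega's ADP-Glo Kinase Assay in 384 well plates. Test compound, diluted in assay buffer (20 mM HEPES (pH 7.5), 6 mM MgCl2, 0.01% Tween-20, 1 mM DTT), was added at 2 μL. Adding 2 μL of diluted enzyme started the reaction, which ran for 60 min at room temperature. Next, 3 μL ADP-Glo solution (30 min) and 6 μL Kinase-Detection solution (60 min) were added, and luminescence was read on an Envision plate reader.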

The next assay has as its target T3, human IP6K3 (Homo sapiens, UniProt Q96PC2).
T3 construct: human IP6K3 (1-410) gene; made in house; host or cells: BL21 (DE3) Escherichia coli
T3 sequence (Q96PC2 1-410): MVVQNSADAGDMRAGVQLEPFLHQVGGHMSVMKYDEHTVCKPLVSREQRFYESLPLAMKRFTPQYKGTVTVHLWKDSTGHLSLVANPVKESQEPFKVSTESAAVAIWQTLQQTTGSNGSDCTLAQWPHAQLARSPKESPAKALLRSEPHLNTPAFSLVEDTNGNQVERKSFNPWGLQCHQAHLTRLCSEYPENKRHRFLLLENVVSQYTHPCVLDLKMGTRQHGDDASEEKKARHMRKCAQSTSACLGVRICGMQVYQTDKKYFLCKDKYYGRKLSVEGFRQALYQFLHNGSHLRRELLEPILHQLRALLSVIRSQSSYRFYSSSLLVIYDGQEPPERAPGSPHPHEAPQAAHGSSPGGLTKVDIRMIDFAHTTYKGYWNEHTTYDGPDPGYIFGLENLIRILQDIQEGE
The assay can be described thus: IP6K enzyme inhibitory assay (ADP-Glo Kinase Assay), human IP6K3. The following applies: compound concentration 0.1 μM; for inhibition at 0.1 µM: read-out: ADP-Glo method inhibitory rate (%) human IP6K3. The essentials:
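Recombinant human IP6K (IP6K3 residues 1-410, E. coli, Ni-NTA purified) incubated with compound in 20 mM HEPES pH 7.5, 6 mM MgCl2, 0.01% Tween-20, 1 mM DTT for 60 min at room temperature. ADP formed read as luminescence by ADP-Glo.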

T1 sequence (Q92551 whole entry): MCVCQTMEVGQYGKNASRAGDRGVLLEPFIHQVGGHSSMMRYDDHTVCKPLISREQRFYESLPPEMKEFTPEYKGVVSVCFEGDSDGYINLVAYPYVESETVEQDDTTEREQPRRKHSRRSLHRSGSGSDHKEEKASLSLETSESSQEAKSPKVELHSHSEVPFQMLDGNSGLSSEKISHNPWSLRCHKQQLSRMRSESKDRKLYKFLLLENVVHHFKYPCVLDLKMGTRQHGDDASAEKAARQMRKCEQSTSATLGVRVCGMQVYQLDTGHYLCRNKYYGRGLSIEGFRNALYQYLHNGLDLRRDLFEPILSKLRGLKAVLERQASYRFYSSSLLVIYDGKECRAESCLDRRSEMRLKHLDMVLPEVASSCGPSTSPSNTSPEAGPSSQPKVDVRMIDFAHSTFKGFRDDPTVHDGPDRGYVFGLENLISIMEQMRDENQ

Regarding `Cc1ccc(O[C@H]2CC[C@@]3(CC2)C(=O)Nc2ccc(C(=O)O)cc23)c(C)c1` [Example 47, (1r,4r)-4-(2,4-dimethylphenoxy)-2′-oxo-1′,2′-dihydrospiro[cyclohexane-1,3′-indole]-5′-carboxylic acid], the “ADP-Glo method inhibitory rate (%) human IP6K1” value at human IP6K1 is reported as 99%. Moreover, the “ADP-Glo method inhibitory rate (%) human IP6K2” value at human IP6K2 is recorded as 96%. Also, at human IP6K3, the “ADP-Glo method inhibitory rate (%) human IP6K3” value is on record as 99%.
On to `O=C(O)c1ccc2c(c1)[C@]1(CC[C@@H](Oc3ccc(C(F)(F)F)cn3)CC1)C(=O)N2` [Example 25, (1r,4r)-2′-oxo-4-((5-(trifluoromethyl)pyridin-2-yl)oxy)-1′,2′-dihydrospiro[cyclohexane-1,3′-indole]-5′-carboxylic acid], for which the inhibition at 0.1 µM amounted to 95% at human IP6K1, 97% at human IP6K2 and 98% on human IP6K3.
For the molecule `Cc1ccc(O[C@H]2CC[C@@]3(CC2)C(=O)Nc2ccc(C(=O)O)cc23)cc1F` [Example 52, (1r,4r)-4-(3-fluoro-4-methylphenoxy)-2′-oxo-1′,2′-dihydrospiro[cyclohexane-1,3′-indole]-5′-carboxylic acid], the results for the inhibition at 0.1 µM at human IP6K1, at human IP6K2 and at human IP6K3 were 99%, 100% and 96%, respectively.
Take `Cc1cc(C)nc(O[C@H]2CC[C@@]3(CC2)C(=O)Nc2ccc(C(=O)O)cc23)n1` [Example 38, (1r,4r)-4-((4,6-dimethylpyrimidin-2-yl)oxy)-2′-oxo-1′,2′-dihydrospiro[cyclohexane-1,3′-indole]-5′-carboxylic acid]: the inhibition at 0.1 µM at human IP6K1 came to 55%; on human IP6K2, 47%; at human IP6K3, 86%.
On to `Cc1ccc(O[C@H]2CC[C@@]3(CC2)C(=O)Nc2ccc(C(=O)O)cc23)c(F)c1` [Example 54, (1r,4r)-4-(2-fluoro-4-methylphenoxy)-2′-oxo-1′,2′-dihydrospiro[cyclohexane-1,3′-indole]-5′-carboxylic acid], for which the inhibition at 0.1 µM at human IP6K1 was determined as 99%; on human IP6K2 it was 100%; at human IP6K3, 101%.
The like results for `N#Cc1cc(Cl)cnc1O[C@H]1CC[C@]2(CC1)C(=O)Nc1ccc(C(=O)O)nc12` [Example 110, (1s,4s)-4-((5-chloro-3-cyanopyridin-2-yl)oxy)-2′-oxo-1′,2′-dihydrospiro[cyclohexane-1,3′-pyrrolo[3,2-b]pyridine]-5′-carboxylic acid] were, in that order, 84%, 96% and 96%.
Regarding `O=C(O)c1ccc2c(c1)[C@]1(CC[C@@H](Oc3ccc(F)c(F)c3)CC1)C(=O)N2` [Example 55, (1r,4r)-4-(3,4-difluorophenoxy)-2′-oxo-1′,2′-dihydrospiro[cyclohexane-1,3′-indole]-5′-carboxylic acid], the inhibition at 0.1 µM worked out at 96% at human IP6K1, 95% on human IP6K2 and 99% on human IP6K3.
In the case of `Cc1cc(Cl)cnc1O[C@H]1CC[C@@]2(CC1)C(=O)Nc1ccc(C(=O)O)nc12` [Example 17, (1r,4r)-4-((5-chloro-3-methylpyridin-2-yl)oxy)-2′-oxo-1′,2′-dihydrospiro[cyclohexane-1,3′-pyrrolo[3,2-b]pyridine]-5′-carboxylic acid], the inhibition at 0.1 µM at human IP6K1 worked out at 92%; on human IP6K2, 91%; at human IP6K3, 93%.
The like results for `O=C(O)c1ccc2c(c1)[C@]1(CC[C@H](Oc3ccccc3)CC1)C(=O)N2` [Example 107, (1s,4s)-2′-oxo-4-phenoxy-1′,2′-dihydrospiro[cyclohexane-1,3′-indole]-5′-carboxylic acid] were, in that order, 94%, 93% and 92%.
In the case of `O=C(O)c1ccc2c(n1)[C@]1(CC[C@H](Oc3ncc(Cl)cc3F)CC1)C(=O)N2` [Example 100, (1s,4s)-4-((5-chloro-3-fluoropyridin-2-yl)oxy)-2′-oxo-1′,2′-dihydrospiro[cyclohexane-1,3′-pyrrolo[3,2-b]pyridine]-5′-carboxylic acid], the inhibition at 0.1 µM was 76% on human IP6K1, 98% at human IP6K2 and 97% on human IP6K3.
As for `O=C(O)c1ccc2c(n1)[C@]1(CC[C@@H](Oc3ccccc3Cl)CC1)C(=O)N2` [Example 90, (1r,4r)-4-(2-chlorophenoxy)-2′-oxo-1′,2′-dihydrospiro[cyclohexane-1,3′-pyrrolo[3,2-b]pyridine]-5′-carboxylic acid], the values for the inhibition at 0.1 µM on human IP6K1, on human IP6K2 and at human IP6K3 were 49%, 47% and 61%, respectively.
On to `Cc1cc(C(F)(F)F)cnc1O[C@H]1CC[C@]2(CC1)C(=O)Nc1ccc(C(=O)O)nc12` [Example 103, (1s,4s)-4-((3-methyl-5-(trifluoromethyl)pyridin-2-yl)oxy)-2′-oxo-1′,2′-dihydrospiro[cyclohexane-1,3′-pyrrolo[3,2-b]pyridine]-5′-carboxylic acid], for which the inhibition at 0.1 µM on human IP6K1 stood at 98%; at human IP6K2, 99%; at human IP6K3, 99%.
Take `O=C(O)c1ccc2c(c1)[C@]1(CC[C@@H](Oc3cc(C(F)(F)F)ccc3F)CC1)C(=O)N2` [Example 78, (1r,4r)-4-(2-fluoro-5-(trifluoromethyl)phenoxy)-2′-oxo-1′,2′-dihydrospiro[cyclohexane-1,3′-indole]-5′-carboxylic acid]: the inhibition at 0.1 µM on human IP6K1 came to 96%; at human IP6K2 it was 96%; on human IP6K3, 98%.
`O=C(O)c1ccc2c(n1)[C@]1(CC[C@@H](Oc3ccc(F)cc3F)CC1)C(=O)N2` [Example 91, (1r,4r)-4-(2,4-difluorophenoxy)-2′-oxo-1′,2′-dihydrospiro[cyclohexane-1,3′-pyrrolo[3,2-b]pyridine]-5′-carboxylic acid]: the inhibition at 0.1 µM on human IP6K1 is 69%; at human IP6K2 it was 60%; at human IP6K3 it was 79%.
On to `N#Cc1c(F)cccc1O[C@H]1CC[C@@]2(CC1)C(=O)Nc1ccc(C(=O)O)cc12` [Example 63, (1r,4r)-4-(2-cyano-3-fluorophenoxy)-2′-oxo-1′,2′-dihydrospiro[cyclohexane-1,3′-indole]-5′-carboxylic acid], for which the inhibition at 0.1 µM on human IP6K1 was determined as 69%; on human IP6K2 it was 87%; at human IP6K3, 96%.
Turning to `O=C(O)c1ccc2c(c1)[C@]1(CC[C@@H](Oc3ccccc3)CC1)C(=O)N2` [Example 113, (1r,4r)-2′-oxo-4-phenoxy-1′,2′-dihydrospiro[cyclohexane-1,3′-indole]-5′-carboxylic acid], the inhibition at 0.1 µM at human IP6K1 was 79%; on human IP6K2, 79%; at human IP6K3, 85%.
Regarding `O=C(O)c1ccc2c(n1)[C@]1(CC[C@@H](Oc3ncc(Cl)cc3C(F)(F)F)CC1)C(=O)N2` [Example 99, (1r,4r)-4-((5-chloro-3-(trifluoromethyl)pyridin-2-yl)oxy)-2′-oxo-1′,2′-dihydrospiro[cyclohexane-1,3′-pyrrolo[3,2-b]pyridine]-5′-carboxylic acid], the results for the inhibition at 0.1 µM on human IP6K1, at human IP6K2 and at human IP6K3 were 51%, 64% and 83%, respectively.
For `O=C(O)c1ccc2c(n1)[C@]1(CC[C@H](Oc3ccc(Cl)cc3Cl)CC1)C(=O)N2` [Example 101, (1s,4s)-4-(2,4-dichlorophenoxy)-2′-oxo-1′,2′-dihydrospiro[cyclohexane-1,3′-pyrrolo[3,2-b]pyridine]-5′-carboxylic acid], the inhibition at 0.1 µM came to 104% at human IP6K1, 100% on human IP6K2 and 98% at human IP6K3.
